Data on eleven compounds can be found in US20260295053A1, “COMPOUNDS FOR DEGRADATION AND INHIBITION OF KRAS (G12D) PROTEIN” (Shenzhen Ionova Life Science Co., Ltd., priority 2023, published 2026).

SMILES strings stand for the structures.

Assay [1] deals with T1, KRAS (G12D) (Homo sapiens, UniProt P01116, G12D).
T1 construct: in-cell western with KRAS G12D antibody after 24 h
The assay can be described thus: KRAS (G12D) cellular degradation assay in AsPC-1 cells. The note with it: 24 hours, antibody fluorescence (Odyssey CLX), DC50 half-maximal degradation concentration. The format is cell-based. In a few lines: (§1)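 Degradation: 22,000 cells/well grown to ~90% confluency, 24 h compound, fixed/permeabilised, anti-KRAS G12D + β-actin antibodies, near-IR fluorescence, DC50. Proliferation: 3,500 cells/well overnight, 6 d compound, CellTiter Glo luminescence, IC50. Dosing […]–1.5 nM final, 1:3 steps.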

The test system of assay [2] is AsPC-1 cells. Nature of the assay: AsPC-1 cell proliferation assay (CellTiter Glo). The format is cell-based. The note with it: 6 days. In a few lines:
as §1
On the technique in general: ATP-based viability assays read luminescence as a measure of living cells.

T1 sequence (P01116 1-188 isoform P01116-2 G12D): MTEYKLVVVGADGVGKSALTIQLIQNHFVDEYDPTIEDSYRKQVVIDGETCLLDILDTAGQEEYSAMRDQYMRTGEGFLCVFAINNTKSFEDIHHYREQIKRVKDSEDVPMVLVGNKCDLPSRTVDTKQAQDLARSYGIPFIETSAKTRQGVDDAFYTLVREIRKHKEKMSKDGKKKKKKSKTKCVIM

A word on the DC50: it is the concentration at which degradation of the target reaches its halfway point. Low values mean degradation at low concentration, high ones degradation only at high concentration. One may read the IC50 as the concentration that inhibits the measured activity by half. A higher IC50 goes with weaker potency in that assay. As for `CCn1nccc1-c1ccc([C@@H](NC(=O)[C@@H]2C[C@@H](O)CN2C(=O)[C@H](C(C)C)n2cc(-c3ccc(COc4c(-c5c(C)c(F)cc6[nH]ncc56)c(C5CC5)cc5c(N6C[C@@H]7C[C@H]6CN7)nc(O[C@H]6C[C@H](OC)C6)nc45)cc3)nn2)[C@@H](C)O)cc1` [Example 131, (2S,4R)-1-((2S)-2-(4-(4-(((4-((1S,4S)-2,5-diazabicyclo[2.2.1]heptan-2-yl)-6-cyclopropyl-7-(6-fluoro-5-methyl-1H-indazol-4-yl)-2-((1r,3S)-3-methoxycyclobutoxy)quinazolin-8-yl)oxy)methyl)phenyl)-1H-1,2,3-triazol-1-yl)-3-methylbutanoyl)-N-((1R,2R)-1-(4-(1-ethyl-1H-pyrazol-5-yl)phenyl)-2-hydroxypropyl)-4-hydroxypyrrolidine-2-carboxamide], the DC50 in assay [1] was under 10 nM. The compound further came in with an IC50 in assay [2] (Homo sapiens, ASPC1, 144 h) of under 10 nM.

`Cc1ncsc1-c1ccc([C@@H](NC(=O)[C@@H]2C[C@@H](O)CN2C(=O)[C@H](C(C)C)n2cc(-c3ccc(COc4c(-c5c(C)c(F)cc6[nH]ncc56)c(C5CC5)cc5c(N6C[C@@H]7C[C@H]6CN7)nc(OC6CC7COCC7C6)nc45)cc3)nn2)[C@H](C)O)cc1` (stereo partly drawn) [Example 132, (2S,4R)-1-((2S)-2-(4-(4-(((4-((1S,4S)-2,5-diazabicyclo[2.2.1]heptan-2-yl)-6-cyclopropyl-7-(6-fluoro-5-methyl-1H-indazol-4-yl)-2-((hexahydro-1H-cyclopenta[c]furan-5-yl)oxy)quinazolin-8-yl)oxy)methyl)phenyl)-1H-1,2,3-triazol-1-yl)-3-methylbutanoyl)-4-hydroxy-N-((1R,2S)-2-hydroxy-1-(4-(4-methylthiazol-5-yl)phenyl)propyl)pyrrolidine-2-carboxamide] showed a DC50 in assay [1] of under 10 nM. For the same compound, in assay [2] (Homo sapiens, ASPC1, 144 h), the IC50 is under 10 nM.

With `CO[C@@H](C)COc1nc(N2C[C@@H]3C[C@H]2CN3)c2cc(C3CC3)c(-c3c(C)c(F)cc4[nH]ncc34)c(OCc3ccc(-c4cn([C@H](C(=O)N5C[C@H](O)C[C@H]5C(=O)N[C@H](C#Cc5cccc6[nH]ncc56)CO)C(C)C)nn4)cc3)c2n1` [Example 133, (2S,4R)-1-((2S)-2-(4-(4-(((4-((1S,4S)-2,5-diazabicyclo[2.2.1]heptan-2-yl)-6-cyclopropyl-7-(6-fluoro-5-methyl-1H-indazol-4-yl)-2-((S)-2-methoxypropoxy)quinazolin-8-yl)oxy)methyl)phenyl)-1H-1,2,3-triazol-1-yl)-3-methylbutanoyl)-4-hydroxy-N—((R)-1-hydroxy-4-(1H-indazol-4-yl)but-3-yn-2-yl)pyrrolidine-2-carboxamide], the DC50 in assay [1] was under 10 nM. In assay [2] (Homo sapiens, ASPC1, 144 h), this compound registered an IC50 of under 10 nM.

The compound `CO[C@H]1C[C@@H](Oc2nc(N3C[C@@H]4C[C@H]3CN4)c3cc(C4CC4)c(-c4c(C)c(F)cc5[nH]ncc45)c(OCc4ccc(-c5cn([C@H](C(=O)N6C[C@H](O)C[C@H]6C(=O)N[C@H](c6ccc(-c7scnc7C)cc6)[C@H](C)O)C(C)C)nn5)cc4)c3n2)C1` [Example 135, (2S,4R)-1-((2S)-2-(4-(4-(((4-((1S,4S)-2,5-diazabicyclo[2.2.1]heptan-2-yl)-6-cyclopropyl-7-(6-fluoro-5-methyl-1H-indazol-4-yl)-2-((1s,3R)-3-methoxycyclobutoxy)quinazolin-8-yl)oxy)methyl)phenyl)-1H-1,2,3-triazol-1-yl)-3-methylbutanoyl)-4-hydroxy-N-((1R,2S)-2-hydroxy-1-(4-(4-methylthiazol-5-yl)phenyl)propyl)purrolidine-2-carboxcamide] gave a DC50 in assay [1] of under 10 nM. Further, the IC50 in assay [2] (Homo sapiens, ASPC1, 144 h) was under 10 nM.

For the compound `CCn1nccc1-c1ccc([C@@H](NC(=O)[C@@H]2C[C@@H](O)CN2C(=O)[C@H](C(C)C)n2cc(-c3ccc(COc4c(-c5c(C)c(F)cc6[nH]ncc56)c(C5CCC5)cc5c(N6C[C@@H]7C[C@H]6CN7)nc(O[C@H]6C[C@H](OC)C6)nc45)cc3)nn2)[C@H](C)O)cc1` [Example 136, (2S,4R)-1-((2S)-2-(4-(4-(((4-((1S,4S)-2,5-diazabicyclo[2.2.1]heptan-2-yl)-6-cyclobutyl-7-(6-fluoro-5-methyl-1H-indazol-4-yl)-2-((1r,3S)-3-methoxycyclobutoxy)quinazolin-8-yl)oxy)methyl)phenyl)-1H-1,2,3-triazol-1-yl)-3-methylbutanoyl)-N-((1R,2S)-1-(4-(1-ethyl-1H-pyrazol-5-yl)phenyl)-2-hydroxypropyl)-4-hydroxypyrrolidine-2-carboxamide], the DC50 in assay [1] is under 10 nM. The same compound returned an IC50 in assay [2] (Homo sapiens, ASPC1, 144 h) of under 10 nM.

Compound `Cc1ncsc1-c1ccc([C@@H](NC(=O)[C@@H]2C[C@@H](O)CN2C(=O)[C@H](C(C)C)n2cc(-c3ccc(COc4c(-c5c(C)c(F)cc6[nH]ncc56)c(C5CC5)cc5c(N6C[C@@H]7C[C@H]6CN7)nc(OC6CCOCC6)nc45)cc3)nn2)[C@@H](O)C2CC2)cc1` [Example 138, (2S,4R)-1-((2S)-2-(4-(4-(((4-((1S,4S)-2,5-diazabicyclo[2.2.1]heptan-2-yl)-6-cyclopropyl-7-(6-fluoro-5-methyl-1H-indazol-4-yl)-2-((tetrahydro-2H-pyran-4-yl)oxy)quinazolin-8-yl)oxy)methyl)phenyl)-1H-1,2,3-triazol-1-yl)-3-methylbutanoyl)-N-((1R,2S)-2-cyclopropyl-2-hydroxy-1-(4-(4-methylthiazol-5-yl)phenyl)ethyl)-4-hydroxypyrrolidine-2-carboxamide] showed a DC50 in assay [1] of under 10 nM. Moreover, the half-maximal inhibitory concentration (IC50) in assay [2] (Homo sapiens, ASPC1, 144 h) was under 10 nM.

Compound `CC[C@H](O)[C@H](NC(=O)[C@@H]1C[C@@H](O)CN1C(=O)[C@H](C(C)C)n1cc(-c2ccc(COc3c(-c4c(C)c(F)cc5[nH]ncc45)c(C4CC4)cc4c(N5C[C@@H]6C[C@H]5CN6)nc(OC5CCOCC5)nc34)cc2)nn1)c1ccc(-c2scnc2C)cc1` [Example 139, (2S,4R)-1-((2S)-2-(4-(4-(((4-((1S,4S)-2,5-diazabicyclo[2.2.1]heptan-2-yl)-6-cyclopropyl-7-(6-fluoro-5-methyl-1H-indazol-4-yl)-2-((tetrahydro-2H-pyran-4-yl)oxy)quinazolin-8-yl)oxy)methyl)phenyl)-1H-1,2,3-triazol-1-yl)-3-methylbutanoyl)-4-hydroxy-N-((1R,2S)-2-hydroxy-1-(4-(4-methylthiazol-5-yl)phenyl)butyl)pyrrolidine-2-carboxamide] showed a DC50 in assay [1] of under 10 nM. In assay [2] (Homo sapiens, ASPC1, 144 h), this compound gave an IC50 of under 10 nM.

`CO[C@@H](C)COc1nc(N(C)[C@H]2CCNC2)c2cc(C3CC3)c(-c3c(C)c(F)cc4[nH]ncc34)c(OCc3ccc(-c4cn([C@H](C(=O)N5C[C@H](O)C[C@H]5C(=O)N[C@H](c5ccc(-c6scnc6C)cc5)[C@H](C)O)C(C)C)nn4)cc3)c2n1` [Example 143, (2S,4R)-1-((2S)-2-(4-(4-(((6-cyclopropyl-7-(6-fluoro-5-methyl-1H-indazol-4-yl)-2-((S)-2-methoxypropoxy)-4-(methyl((S)-pyrrolidin-3-yl)amino)quinazolin-8-yl)oxy)methyl)phenyl)-1H-1,2,3-triazol-1-yl)-3-methylbutanoyl)-4-hydroxy-N-((1R,2S)-2-hydroxy-1-(4-(4-methylthiazol-5-yl)phenyl)propyl)pyrrolidine-2-carboxamide] had a DC50 in assay [1] of under 10 nM. This compound also showed an IC50 in assay [2] of under 10 nM.

With `CO[C@@H](C)COc1nc(N(C)[C@H]2CCNC2)c2cc(C3CC3)c(-c3c(C)c(F)cc4[nH]ncc34)c(OCc3ccc(-c4cn([C@H](C(=O)N5C[C@H](O)C[C@H]5C(=O)N[C@H](c5ccc(-c6scnc6C)cc5)[C@H](C)O)C(C)C)nn4)cc3)c2n1` [Example 144, (2S,4R)-1-((2S)-2-(4-(4-(((6-cyclopropyl-7-(6-fluoro-5-methyl-1H-indazol-4-yl)-2-((S)-2-methoxypropoxy)-4-(methyl((S)-pyrrolidin-3-yl)amino)quinazolin-8-yl)oxy)methyl)phenyl)-1H-1,2,3-triazol-1-yl)-3-methylbutanoyl)-4-hydroxy-N-((1R,2S)-2-hydroxy-1-(4-(4-methylthiazol-5-yl)phenyl)propyl)pyrrolidine-2-carboxamide], the DC50 in assay [1] is over 1000 nM. The compound further yielded an IC50 in assay [2] of over 1000 nM.

In assay [1], `CCn1nccc1-c1ccc([C@@H](NC(=O)[C@@H]2C[C@@H](O)CN2C(=O)[C@H](C(C)C)n2cc(-c3ccc(COc4c(-c5c(C)c(F)cc6[nH]ncc56)c(C5CC5)cc5c(N6C[C@@H]7C[C@H]6CN7)nc(O[C@H]6C[C@H](OC)C6)nc45)cc3)nn2)[C@H](C)O)c2c1CC2` [Example 147, (2S,4R)-1-((2S)-2-(4-(4-(((4-((1S,4S)-2,5-diazabicyclo[2.2.1]heptan-2-yl)-6-cyclopropyl-7-(6-fluoro-5-methyl-1H-indazol-4-yl)-2-((1r,3S)-3-methoxycyclobutoxy)quinazolin-8-yl)oxy)methyl)phenyl)-1H-1,2,3-triazol-1-yl)-3-methylbutanoyl)-N-((1R,2S)-1-(5-(1-ethyl-1H-pyrazol-5-yl)bicyclo[4.2.0]octa-1(6),2,4-trien-2-yl)-2-hydroxypropyl)-4-hydroxypyrrolidine-2-carboxamide] returned a DC50 of under 10 nM. The compound further displayed an IC50 in assay [2] (Homo sapiens, ASPC1, 144 h) of under 10 nM.

For `CO[C@@H](C)COc1nc(N2C[C@@H]3C[C@H]2CN3)c2cc(C3CC3)c(-c3c(C)c(F)cc4[nH]ncc34)c(OCc3ccc(-c4cn([C@H](C(=O)N5C[C@H](O)C[C@H]5C(=O)N[C@H](c5ccc(S(F)(F)(F)(F)F)cc5)[C@H](C)O)C(C)C)nn4)cc3)c2n1` [Example 148, (2S,4R)-1-((2S)-2-(4-(4-(((4-((1S,4S)-2,5-diazabicyclo[2.2.1]heptan-2-yl)-6-cyclopropyl-7-(6-fluoro-5-methyl-1H-indazol-4-yl)-2-((S)-2-methoxypropoxy)quinazolin-8-yl)oxy)methyl)phenyl)-1H-1,2,3-triazol-1-yl)-3-methylbutanoyl)-4-hydroxy-N-((1R,2S)-2-hydroxy-1-(4-(pentafluoro-I6-sulfaneyl)phenyl)propyl)pyrrolidine-2-carboxamide], the DC50 in assay [1] was over 1000 nM. In assay [2] (Homo sapiens, ASPC1, 144 h), the IC50 is over 1000 nM.
